The assay relates to DSPP gene. Description: mRNA level of DSPP gene in MDPC-23 cells by RT-PCR and real-time PCR. In kind it is cell-based, mouse. Conditions: cultured 48 hours with peptide, relative ratio to mRNA level in untreated control, Gapdh internal control, repeated three times. The method, then:
The MDPC-23 cells cultured in Example 2-1 were treated with the peptides of each group synthesized in Example 1, then cultured for 48 hours. The mRNA level of the DSPP, an odontoblast differentiation marker gene, expressed in the MDPC-23 cells were measured, and the measured mRNA level of each DSPP gene was converted into a relative ratio to the mRNA level of the DSPP gene measured in control (Tables 13 to 24). In addition, the average value of the mRNA level of the DSPP gene measured according to the peptides of each group was compared (FIG. 1B). At this time, as a control, MDPC-23 cells that were not treated with the peptide promoting differentiation of odontoblast were used.
The expression level of the DSPP gene was measured through RT-PCR and real-time PCR analysis: Specifically, total RNA was extracted from the MDPC-23 cells using TRIzol reagent. 2 μg of the total RNA, 1 μl of reverse transcriptase, and 0.5 μg of oligo (oligo; dT) were used to synthesize cDNA. The synthesized cDNA was used in a real-time polymerase chain reaction. The real-time polymerase chain reaction was performed on an ABI PRISM 7500 sequence detection system (Applied Biosystems) and an SYBR GREEN PCR Master Mix (Takara, Japan). The real-time polymerase chain reaction was performed under conditions of 94° C., 1 min; 95° C., 15 sec; 60° C., 34 sec for 40 cycles. Results were analyzed by a comparative cycle threshold (CT) method. At this time, the Gapdh gene was used as the internal control group, and the measured value was repeated three times. The mean value and standard deviation value thereof were used.
A general note: Quantitative PCR measures a nucleic acid by following its amplification.

We go through 17 substances from patent US11452682B2, “Toothpaste composition for alleviating dentin hyperesthesia” (HYSENSBIO, priority 2018, dated 2022).

Regarding “41 (KYRQRKKSKY; Novel peptide) [compound 41]”, the “mRNA level of Dspp gene Mean” value came out at 1.546.

For “47 (KYRQKKRSKY; Novel peptide) [compound 47]”, the “mRNA level of Dspp gene Mean” value is reported as 1.697.

As for “26 (KYQRRKRSYK; Novel peptide) [compound 26]”, the “mRNA level of Dspp gene Mean” value was 2.193. For “80 (KYKQKRRSKY; Novel peptide) [compound 80]”, the “mRNA level of Dspp gene Mean” value is 1.837. Consider “49 (KYRQRKKNYK; Novel peptide) [compound 49]”, for which the “mRNA level of Dspp gene Mean” value was 1.923. On to “7 (KYQRKKRNKY; Novel peptide) [compound 7]”, for which the “mRNA level of Dspp gene Mean” value is on record as 1.864. Consider “13 (KYQRKKKSKY; Novel peptide) [compound 13]”, for which the “mRNA level of Dspp gene Mean” value came out at 1.685. The value for “33 (KYRQRKKNKY; Novel peptide) [compound 33]” was 1.712; that for “17 (KYQRRKKNYK; Novel peptide) [compound 17]” was 2.117. “28 (KYQRRRRSYK; Novel peptide) [compound 28]”: the “mRNA level of Dspp gene Mean” value is reported as 2.453. For “15 (KYQRKKRSKY; Novel peptide) [compound 15]”, the “mRNA level of Dspp gene Mean” value amounted to 1.964. Take “60 (KYRQRRRSYK; Novel peptide) [compound 60]”: the “mRNA level of Dspp gene Mean” value was determined as 2.107. For “82 (KYKQRKRNYK; Novel peptide) [compound 82]”, the “mRNA level of Dspp gene Mean” value was 3.361. Regarding “95 (KYKQKKRSYK; Novel peptide) [compound 95]”, the “mRNA level of Dspp gene Mean” value is recorded as 4.62. “73 (KYKQRKKSKY; Novel peptide) [compound 73]”: the “mRNA level of Dspp gene Mean” value turned out to be 2.035. As to “25 (KYQRRKKSYK; Novel peptide) [compound 25]”, the “mRNA level of Dspp gene Mean” value came to 2.371. With “9 (KYQRRKKSKY; Novel peptide) [compound 9]” the figure was 1.854.
